System: Trichostrongylus colubriformis and Haemonchus contortus
Assay: In-vivo test on Trichostrongylus colubriformis and Haemonchus contortus on Mongolian gerbils using peroral application
Parameters: species or system Mongolian gerbils (Meriones unguiculatus)
Conditions: Mongolian gerbils infected with T. colubriformis and H. contortus, dose of 16 mg/kg, worm count 3 days after treatment
Text: 1. In-vivo Test on Trichostrongylus colubriformis and Haemonchus contortus on Mongolian Gerbils (Meriones unguiculatus) using Peroral Application Six to eight week old Mongolian gerbils are infected through a stomach tube with ca. 2000 third instar larvae each of T. colubriformis and H. contortus. […] On day 9 (3 days after treatment), when most of the H. contortus that are still present are late 4th instar larvae and most of the T. colubriformis are immature adults, the gerbils are killed in order to count the worms. The efficacy is calculated as the % reduction of the number of worms in each gerbil, compared with the geometric average of number of worms from 6 infected and untreated gerbils.

CC(C#N)(COc1cc(C#N)ccc1Oc1ccc(Cl)cc1Cl)NC(=O)c1ccc(OC(F)(F)F)cc1 (stereo not shown) [Compound 1.47, N-[1-cyano-1-methyl-2-(5-cyano-2-{2,4-dichlorophenoxy}-phenoxy)-ethyl]-4-trifluoromethoxybenzamide]
elimination of the nematode infestation: complete elimination

— patent US7705047B2, “Amidoacetonitrile derivatives” (Novartis AG, priority 2003, dated 2010)
